Numbered stars: 1 amine (or outer) side, 2 acyl side, 3 side chain; on linkers, the order of the positions; unused ones are H or OH. Square brackets hold non-standard residues; d marks the D form. Side chains are listed from the residue outwards. Peptide text beside a SMILES is read from it. * marks the point of attachment. Ethylenediamine = C(CN[*:2])N[*:1]; Hyp = O=C(O)[C@@H]1C[C@@H](O)CN1; Phg = N[C@H](C(=O)O)c1ccccc1; CO = O=C([*:1])[*:2]; Bn = c1ccc(C*)cc1
Assays:
[1] = tested on: hPITO35; conditions: for Dose response (cell viability): organoid 35, compared to Cabergoline
Protocol: (§1) Organoids were grown in Matrigel™ domes within 96-well round-bottom culture plates. Recombinant human SHH was removed from the pituitary organoid growth media, 24 hrs. prior to drug treatment. Organoids were treated with either vehicle (DMSO), cabergoline (Selleckchem S5842), ketoconazole (Selleckchem S1353), roscovitine (Selleckchem S1153), GANT61 (Stemcell Technologies 73692), pasireotide (TargetMol TP2207), mifeprostone (Selleckchem S2606), etomidate (Selleckchem S1329), mitotane (Selleckchem S1732), metyropane (Selleckchem S5416), or osilodrostat (Selleckchem S7456) at concentrations of 0, 1, 10, 100, 1000, and 10000 nM for 72 hours. Percent cell viability was measured using an MTS assay (Promega G3580). Absorbance was measured at 490 nm and normalized to the vehicle. Concentrations were plotted in a logarithmic scale, and a nonlinear dose-response curve regression was calculated using GraphPad Prism. An IC50 value for each drug treatment was determined based on the dose response curve using GraphPad Prism analysis software.

[2] = tested on: hPITO37; assay: Spectral flow cytometry (SSTR2, SSTR5, ACTH, zombie); type: cell-based, human; conditions: Pas 837.5 nM, Mife 2.85 nM
Protocol: The multicolor flow cytometry panel was designed using the Cytek®Full Spectrum Viewer online tool to calculate the similarity index. The organoids were harvested in cold SFDM media and centrifuged at 400×g for 5 minutes. Supernatant was discarded and organoids were dissociated to single cells using Accutase® (Thermo Fisher Scientific 00-4555-56). The enzymatic reaction was stopped using prewarmed DPBS and cells were then centrifuged at 400×g for 5 minutes and incubated with fluorochrome-conjugated/unconjugated primary surface or cytoplasmic antibodies at 4° C. for 30 minutes. Cells were then washed with Cell Staining Buffer (BioLegend #420-201) and incubated with secondary antibodies at 4° C. for 30 minutes. Cells were fixed using Cytofix/Cytoperm™ Fixation/Permeabilization Solution (BD Biosciences #554714) at 4° C. for 20 minutes, followed by washing with Fixation/Permeabilization wash buffer. Cells were then labeled with fluorochrome-conjugated/unconjugated intracellular primary antibodies at 4° C. for 30 minutes, washed and incubated with secondary antibodies at 4° C. for 30 minutes. Cells resuspended in cell staining buffer and fluorescence measured using the Cytek Aurora 5 Laser Spectral Flow Cytometer. An unstained cell sample was fixed and used as reference control. UltraComp eBeads™, Compensation Beads (Thermo Fisher Scientific #01-2222-42) were stained with the individual antibodies and used as single stain control for compensation and gating. Data was acquired using the Cytek™ Aurora and analyzed using Cytobank software (Beckman Coulter, Indianapolis, IN).

[3] = monotherapy; cited from earlier work
[4] = tested on: iPSC^ctrl organoids; assay: Proliferation by EdU uptake; type: cell-based, human; conditions: 100 nM
Protocol: (§2) Organoids were immunostained using published protocols by our laboratory. Proliferation was measured by using 5-ethynyl-2'-deoxyuridine (EdU) incorporation according to the Manufacturer's protocol (Click-IT EdU Alexa Fluor 555 Imaging Kit, Thermo Fisher Scientific C10338). Costaining was performed by blocking fixed organoids with 2% donkey serum (Jackson Immuno Research, #017-000-121) diluted in 0.01% PBST for 1 hr. at room temperature. Organoids were then incubated overnight at 4° C. with primary antibodies followed by secondary antibodies and Hoechst (Thermo Fisher Scientific H1399, 1:1000 in 0.01% PBST) for 1 hr at room temperature. Human specific primary antibodies used included: rabbit anti-ACTH (Thermo Fisher Scientific 701293, 1:250), rabbit anti-Synaptophysin (Thermo Fisher Scientific PA5-27286, 1:100), […] (Thermo Fisher Scientific PA5-98650, 1:50), rabbit anti-LH (Thermo Fisher Scientific PA5-102674, 1:100), mouse anti-FSH (Thermo Fisher Scientific MIF2709, 1:100), mouse anti-PRL (Thermo Fisher Scientific CF500720, 1:100), Alexa Flour conjugated GH (NB500-364AF647, 1:100) and mouse anti-CAM5.2 (SIGMA […]-95, 1:250). The secondary antibodies used included Alexa Fluor 488 Donkey Anti Rabbit IgG (H+L) (Thermo Fisher Scientific A21206, 1:100) or Alexa Fluor 647 Donkey Anti Mouse IgG (H+L) (Thermo Fisher Scientific A31571, 1:100). Organoids were visualized and images acquired by confocal microscopy using the Nikon CrestV2 Spinning Disk. Fluorescence intensity and percentage of EdU positive cells of total cells, were calculated using Nikon Elements Software (Version 5.21.05).

[5] = tested on: iPSC^USP48MV organoids; assay: Proliferation by EdU uptake; type: cell-based, human; conditions: 100 nM
Protocol: as §2

[6] = tested on: hPITO34
Protocol: as §1

[7] = tested on: iPSC^ctrl organoids; assay: ACTH secretion ELISA of conditioned media; type: cell-based, human; conditions: for effect on ACTH secretion in response to Mifepristone: 100 nM with Mife 500 nM
Protocol: (§3) Concentration of secreted ACTH in conditioned media that was collected from organoid cultures was measured using the Human ACTH ELISA Kit (Novus Biologicals, NBP2-66401) according to the manufacturer's protocol. The enzyme-substrate reaction was measured spectrophotometrically (BioTek Gen5 Micro Plate Reader Version 3.11) at a wavelength of 450 nm and the ACTH concentration (pg/mL) was interpolated using a standard curve with a 4-parameter logistic regression analysis using GraphPad Prism (Version 9.2.0).

[8] = tested on: iPSC^USP48MV organoids; assay: ACTH secretion ELISA of conditioned media; type: cell-based, human; conditions: for effect on ACTH secretion in response to Mifepristone: 100 nM with Mife 500 nM
Protocol: as §3

[9] = molecular target: SSTR5 (Homo sapiens, UniProt P35346); conditions: cited from earlier work
[10] = tested on: hPITO33; assay: Drug dose response, MTS cell viability assay; type: cell-based, human
[11] = tested on: hPITOs generated from CD patients; assay: High-throughput drug screen, MTS assay; type: cell-based, human; conditions: 1 uM, 72 hrs
Protocol: Patient adenoma-derived pituitary organoids were grown in 96-well plates and treated with 147 small molecules taken from the NCI AOD9 compound library for 72 hrs. (https://dtp.cancer.gov/organization/dscb/obtaining/available_plates.html). Drugs were diluted from 10 mM DMSO stock plates into 100 uM DMSO working stocks with a final concentration of 1 uM. All vehicle controls were treated with 0.1% DMSO. Organoid proliferation was measured using CellTiter 96® AQueous One Solution Cell Proliferation Assay kit (MTS, Promega, G3582) according to the manufacturer's instruction. Organoid death was calculated based on the absorbance readings at 490 nm, collected from the MTS assay relative to the vehicle controls. Drug screens were performed with biological replicates in same screen. Drugs were selected based on their ability to target key signaling pathways and clinical relevance to the treatment. Drug sensitivity is represented by cell viability and is significant at <0.5 suppressive effect of the drugs. The percent cell viability relative to the vehicle control was calculated. Correlation coefficient across each organoid were calculated using Pearson method to assess confidence in replication. Variance Component was detected for each drug across all organoids. A random effect model was run with a single random factor for each drug and estimated variance was calculated by rejecting the null hypothesis that there isn't variation among samples. The drug responses were grouped by variance factor large (vc>100), median (100>vc>50), and small (vc<50). Heatmap was used to display the differential responses in cell viability for the drugs.
Tumor recurrence can occur in as many as 30-50% of CD patients after successful surgical treatment. Unfortunately, bilateral adrenalectomy is the chosen surgical treatment for patients with persistent CD [35]. Bilateral adrenalectomy leads to the increased risk for development of Nelson's syndrome (progressive hyperpigmentation due to ACTH secretion and expansion of the residual pituitary tumor). Although the risk of developing Nelson's syndrome following adrenalectomy can be reduced by 50% with stereotactic radiotherapy, there is a need to develop medical therapies that directly target the pituitary adenoma. Thus, we established a high-throughput drug screening assay using patient-derived pituitary organoids. […] The replicates behaved consistently with the drug response with the correlation scores of >0.8 for these samples (FIG. 3a). We estimated the variance component for each drug across all organoids. […] The drug responses were grouped by variance factor large, median, and small. The larger the variance the more variable is the drug response across the organoids. […]

[12] = tested on: SSTR5; assay: Differential expression of SSTR5 in iPSC generated pituitary tumor organoids; type: cell-based, human; conditions: for effect on relacorilant stimulated SSTR5: iPSC organoids; for effect of pretreatment on Mifepristone-induced SSTR5 expression / differential expression of SSTR5: iPSC^ctrl organoids; for effect of pretreatment on Mifepristone-induced SSTR5 expression: GANT 5 uM, Keto 10 uM; for differential expression of SSTR5: drug alone (Mife 500 nM, GANT 5 uM, Keto 10 uM, Dexa 100 nM)
[13] = tested on: SSTR2; assay: Differential expression of SSTR2 in iPSC generated pituitary tumor organoids; type: cell-based, human; conditions: for effect on relacorilant stimulated SSTR2: iPSC organoids; for effect of pretreatment on Mifepristone-induced SSTR2 expression / differential expression of SSTR2: iPSC^ctrl organoids; for effect of pretreatment on Mifepristone-induced SSTR2 expression: GANT 5 uM, Keto 10 uM; for differential expression of SSTR2: drug alone (Mife 500 nM, GANT 5 uM, Keto 10 uM, Dexa 100 nM)
[14] = tested on: transcriptional regulation of POMC by Gli1; assay: Gene ChIP assay in hPITO cultures expressing USP8 and USP48 mutations; type: cell-based, human
[15] = greater magnitude than Octreotide plus relacorilant

SSTR5 (Homo sapiens, UniProt P35346), sequence (P35346 whole entry): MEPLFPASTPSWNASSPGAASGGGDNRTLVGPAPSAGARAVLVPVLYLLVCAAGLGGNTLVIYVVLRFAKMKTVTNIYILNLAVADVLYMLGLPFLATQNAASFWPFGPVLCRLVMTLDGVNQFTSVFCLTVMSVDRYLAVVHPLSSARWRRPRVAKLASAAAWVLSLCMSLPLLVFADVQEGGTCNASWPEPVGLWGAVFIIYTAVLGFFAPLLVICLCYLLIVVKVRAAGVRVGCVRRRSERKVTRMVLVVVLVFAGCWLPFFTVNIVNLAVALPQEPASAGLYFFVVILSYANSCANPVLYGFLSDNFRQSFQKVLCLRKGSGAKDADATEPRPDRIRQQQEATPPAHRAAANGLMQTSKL

N#Cc1ccc([C@H]2CCc3cncn32)c(F)c1 [osilodrostat]
Dose response (cell viability) [1]: better responses than Cabergoline

NCCCC[C@@H]1NC(=O)[C@@H](Cc2c[nH]c3ccccc23)NC(=O)[C@H](c2ccccc2)NC(=O)[C@@H]2C[C@@H](OC(=O)NCCN)CN2C(=O)[C@H](Cc2ccccc2)NC(=O)[C@H](Cc2ccc(OCc3ccccc3)cc2)NC1=O [Pasireotide] (cyclo([Hyp]([CO-Ethylenediamine])[Phg][dW]KY(Bn)F))
effect of pretreatment on Mife-increased number of ACTH expressing cells [2]: not inhibited | patients with CD in whom cortisol is normalized [3]: up to 42% | effect of pretreatment on the proliferative response to Mife [4]: no effect | effect of pretreatment on the proliferative response to Mife [5]: no effect | IC50 ([6]; hPITO34, 72 hours, MTS cell viability): 6.1 nM | IC50 ([1]; hPITO35, 72 hours, MTS cell viability): 1000 nM | effect on ACTH secretion in response to Mifepristone [7]: significantly reduced | hormone (ACTH) secretion in combination with relacorilant [7, 15]: reduced hormone secretion | effect on ACTH secretion in response to Mifepristone [8]: significantly reduced | hormone (ACTH) secretion in combination with relacorilant [8, 15]: reduced hormone secretion | binding to SSTR5 [9]: high-affinity binding | IC50 ([10]; hPITO33, 72 hours, MTS cell viability): 1200 nM

C=CCN1C[C@H](C(=O)N(CCCN(C)C)C(=O)NCC)C[C@@H]2c3cccc4[nH]cc(c34)C[C@H]21 [cabergoline]
Dose response (cell viability) ([6]; organoid 34, compared to Metyrapone and osilodrostat): better response at lower dose | response of the adenoma cells within the organoids ([11]; hPITO7, 10 and 25): ~0% | response of the adenoma cells within the organoids ([11]; hPITO34 and hPITO35): 50% | Dose response (cell viability) ([10]; organoid 33, compared to Metyrapone and osilodrostat): better response at lower dose

CC(=O)N1CCN(c2ccc(OCC3COC(Cn4ccnc4)(c4ccc(Cl)cc4Cl)O3)cc2)CC1 (centres unmarked) [ketoconazole]
effect on relacorilant stimulated SSTR5 [12]: failed to block | effect of pretreatment on Mifepristone-induced SSTR5 expression [12]: no effect | differential expression of SSTR5 [12]: no effect | effect on relacorilant stimulated SSTR2 [13]: failed to block | effect of pretreatment on Mifepristone-induced SSTR2 expression [13]: no effect | differential expression of SSTR2 [13]: no effect

C[C@@H](O)[C@@H]1NC(=O)[C@H](CCCCN)NC(=O)[C@@H](Cc2c[nH]c3ccccc23)NC(=O)[C@H](Cc2ccccc2)NC(=O)[C@@H](NC(=O)[C@H](N)Cc2ccccc2)CSSC[C@@H](C(=O)N[C@H](CO)[C@@H](C)O)NC1=O [Octreotide]
effect of pretreatment on the proliferative response to Mife [4]: inhibited | effect of pretreatment on the proliferative response to Mife [5]: inhibited | effect on ACTH secretion in response to Mifepristone [7]: significantly reduced | effect on ACTH secretion in response to Mifepristone [8]: significantly reduced

CC(C)(C(=O)c1cccnc1)c1cccnc1 [Metyrapone]
Dose response (cell viability) [1]: better responses than Cabergoline

CN(C)c1ccccc1CN1CCCN(Cc2ccccc2N(C)C)C1c1ccncc1 [GANT61]
effect on relacorilant stimulated SSTR5 [12]: inhibited | effect of pretreatment on Mifepristone-induced SSTR5 expression [12]: reduced | differential expression of SSTR5 [12]: no effect | transcriptional regulation of POMC by Gli1 (ChIP) [14]: blocked | effect on relacorilant stimulated SSTR2 [13]: inhibited | effect of pretreatment on Mifepristone-induced SSTR2 expression [13]: reduced | differential expression of SSTR2 [13]: no effect
